Data reported in patent USRE49850E1, “N-(pyridin-2-yl)-4-(thiazol-5-yl)pyrimidin-2-amine derivatives as therapeutic compounds” (AUCENTRA THERAPEUTICS PTY LTD, priority 2015, dated 2024).
Like-named read-outs stand apart in the source and are kept apart here.

Assays:
CDK7H = CDK7H (Homo sapiens, UniProt P50613); test: Kinase assay CDK7H (radiometric profiling service); assay type: biochemical; details: apparent Ki calculated from Km (ATP) and IC50; read-out: CDK inhibition Ki CDK7H
Experimental: (§1) Eurofins Pharma Discovery or Reaction Biology Corporation Kinase Profiler services were used to measure inhibition of CDKs and other kinases by radiometric assay. Inhibition of CDK4/D1, CDK6/D3 and CDK9/T1 were also determined in-house using ADP Glo Kinase assays (Promega Corporation, Madison, USA). Briefly, the kinase reaction for CDK4/D1 and CDK6/D3 was performed with kinase reaction buffer ([…] Tris base pH 7.5, 20 mM MgCl2, 0.4 mM DTT), 0.1 mg/ml BSA and RB-CTF substrate (retinoblastoma protein1 C-terminal fraction). For CDK9/CyclinT1, the kinase reaction was performed with standard assay buffer and Kinase Dilution Buffer and RBER-IRStide substrate. Serial dilutions of 1:3 were prepared for test compounds for 10 concentrations (from 10 μM to 0.5 nM). The kinase reactions were started by addition of ATP, incubated for 40 min at 37° C. and then stopped by adding 10 μL of ADP Glo reagent. After incubation at room temperature in the dark for 40 min, 20 μL of kinase detection reagent was added per well and incubated for 40 min. Luminescence was measured using an EnVision Multilabel plate reader (PerkinElmer, Buckinghamshire, UK). Positive and negative controls were perfonned in the presence and absence of CDK kinases, respectively. Half-maximal inhibition (IC50) values were calculated using a 4-parameter logistic non-linear regression model with Graphpad prism (Version 6.0). Apparent inhibition constants (Ki) values were calculated from Km (ATP) and IC50 values for the respective kinases.

CDK6D3 = target: T1, CDK6D3 (Homo sapiens, UniProt Q00534); test: Kinase assay CDK6/D3 (radiometric or ADP Glo); assay type: biochemical; details: apparent Ki calculated from Km (ATP) and IC50; read-out: CDK inhibition Ki CDK6D3
T1 construct: purchased Eurofins Pharma Discovery or Reaction Biology Corporation (service)
T1 sequence (Q00534 whole entry): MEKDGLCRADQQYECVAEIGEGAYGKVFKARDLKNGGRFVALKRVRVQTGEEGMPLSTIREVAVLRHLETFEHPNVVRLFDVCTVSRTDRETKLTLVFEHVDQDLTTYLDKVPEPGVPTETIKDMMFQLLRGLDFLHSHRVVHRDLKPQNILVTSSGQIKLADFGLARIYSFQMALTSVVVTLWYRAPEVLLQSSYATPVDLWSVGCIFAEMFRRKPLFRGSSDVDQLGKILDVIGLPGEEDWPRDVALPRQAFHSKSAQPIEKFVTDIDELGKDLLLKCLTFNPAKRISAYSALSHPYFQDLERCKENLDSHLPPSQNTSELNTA
T1 sequence (P30281 whole entry partner): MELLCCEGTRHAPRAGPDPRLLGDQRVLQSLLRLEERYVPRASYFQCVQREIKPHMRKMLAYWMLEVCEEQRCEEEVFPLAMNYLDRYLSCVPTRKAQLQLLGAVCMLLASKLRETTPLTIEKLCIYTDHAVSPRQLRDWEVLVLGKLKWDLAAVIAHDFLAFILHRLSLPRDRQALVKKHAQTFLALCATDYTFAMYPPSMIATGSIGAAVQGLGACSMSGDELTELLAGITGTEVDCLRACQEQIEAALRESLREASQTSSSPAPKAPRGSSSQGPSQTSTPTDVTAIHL
Experimental: as §1

CDK4D1 = target: T2, CDK4D1 (Homo sapiens, UniProt P11802); test: Kinase assay CDK4/D1 (radiometric or ADP Glo); assay type: biochemical; details: apparent Ki calculated from Km (ATP) and IC50; read-out: CDK inhibition Ki CDK4D1
T2 construct: purchased Eurofins Pharma Discovery or Reaction Biology Corporation (service)
T2 sequence (P11802 whole entry): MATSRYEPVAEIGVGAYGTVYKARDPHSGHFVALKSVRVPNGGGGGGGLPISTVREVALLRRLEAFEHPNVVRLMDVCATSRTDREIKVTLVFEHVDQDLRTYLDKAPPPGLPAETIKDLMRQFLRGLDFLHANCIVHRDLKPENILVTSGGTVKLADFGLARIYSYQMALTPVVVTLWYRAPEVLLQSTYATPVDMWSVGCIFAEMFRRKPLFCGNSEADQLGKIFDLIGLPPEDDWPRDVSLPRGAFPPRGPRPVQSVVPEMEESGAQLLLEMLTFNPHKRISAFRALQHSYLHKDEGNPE
T2 sequence (P24385 whole entry partner): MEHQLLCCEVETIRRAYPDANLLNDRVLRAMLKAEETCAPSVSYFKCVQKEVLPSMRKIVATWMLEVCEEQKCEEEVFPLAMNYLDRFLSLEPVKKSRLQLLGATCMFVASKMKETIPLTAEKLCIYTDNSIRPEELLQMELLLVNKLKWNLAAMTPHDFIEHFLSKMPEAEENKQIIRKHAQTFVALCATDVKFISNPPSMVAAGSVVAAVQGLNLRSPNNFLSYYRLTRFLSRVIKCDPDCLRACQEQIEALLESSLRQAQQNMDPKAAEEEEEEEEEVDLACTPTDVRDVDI
Experimental: as §1

MDA-MB-453 = test: Cell viability assay (MTT, solid tumour cell line) MDA-MB-453; assay type: cell-based, human; details: read-out: Anti-proliferative activity GI50 MDA-MB-453
Source text: (§2) Compounds from Example 1 were subjected to a standard MTT (3-(4,5-dimethylthiazol-2-yl)-2,5-diphenyltetrazolium bromide) and resazurin assays on solid tumour cell lines and leukemia cell lines, respectively, as previously reported (Wang S et al., J Med Chem 47:1662-1675, 2004 and Diab S. et al. CheMedChem 9:962-972, 2014).

CDK 2A = CDK 2A (Homo sapiens, UniProt P24941); test: Kinase assay CDK2A (radiometric profiling service); assay type: biochemical; details: apparent Ki calculated from Km (ATP) and IC50; read-out: CDK inhibition Ki CDK 2A
Experimental: as §1

CDK9T1 = target: T3, CDK9T1 (Homo sapiens, UniProt P50750); test: Kinase assay CDK9/T1 (radiometric or ADP Glo); assay type: biochemical; details: apparent Ki calculated from Km (ATP) and IC50; read-out: CDK inhibition Ki CDK9T1
T3 construct: purchased Eurofins Pharma Discovery or Reaction Biology Corporation (service)
T3 sequence (P50750 whole entry): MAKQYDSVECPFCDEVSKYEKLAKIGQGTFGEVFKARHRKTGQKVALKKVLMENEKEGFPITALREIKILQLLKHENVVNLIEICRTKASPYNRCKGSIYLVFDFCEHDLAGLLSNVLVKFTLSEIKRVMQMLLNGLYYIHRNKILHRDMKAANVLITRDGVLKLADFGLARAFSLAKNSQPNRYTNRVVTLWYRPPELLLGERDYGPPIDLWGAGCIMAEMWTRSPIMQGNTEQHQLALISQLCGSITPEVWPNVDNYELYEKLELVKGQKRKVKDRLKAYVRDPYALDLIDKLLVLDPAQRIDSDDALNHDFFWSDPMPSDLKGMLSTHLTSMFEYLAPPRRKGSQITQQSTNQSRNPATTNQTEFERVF
T3 sequence (O60563 whole entry partner): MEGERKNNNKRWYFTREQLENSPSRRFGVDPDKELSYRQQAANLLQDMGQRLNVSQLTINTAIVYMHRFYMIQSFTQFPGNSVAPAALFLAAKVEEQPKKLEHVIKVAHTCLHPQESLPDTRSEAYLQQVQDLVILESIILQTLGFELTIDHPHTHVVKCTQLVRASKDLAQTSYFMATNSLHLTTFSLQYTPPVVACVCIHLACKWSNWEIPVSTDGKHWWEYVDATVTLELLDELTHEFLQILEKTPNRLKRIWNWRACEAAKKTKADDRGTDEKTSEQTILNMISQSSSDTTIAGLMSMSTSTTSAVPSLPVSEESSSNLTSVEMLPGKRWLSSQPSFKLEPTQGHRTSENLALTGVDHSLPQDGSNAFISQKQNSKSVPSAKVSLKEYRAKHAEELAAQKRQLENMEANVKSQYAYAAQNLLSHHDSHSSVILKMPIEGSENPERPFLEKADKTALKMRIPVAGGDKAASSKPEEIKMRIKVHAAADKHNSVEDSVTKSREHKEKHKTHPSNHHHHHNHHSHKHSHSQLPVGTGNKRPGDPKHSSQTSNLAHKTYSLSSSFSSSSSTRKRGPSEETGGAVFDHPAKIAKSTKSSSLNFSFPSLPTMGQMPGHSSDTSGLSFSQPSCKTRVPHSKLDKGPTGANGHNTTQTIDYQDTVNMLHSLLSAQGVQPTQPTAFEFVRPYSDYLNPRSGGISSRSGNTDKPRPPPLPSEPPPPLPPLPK
Experimental: as §1

MV4-11 = test: Cell viability assay (resazurin, leukemia cell line) MV4-11; assay type: cell-based, human; details: read-out: Anti-proliferative activity GI50 MV4-11
Source text: as §2

CDK1B = CDK1B (Homo sapiens, UniProt P06493); test: Kinase assay CDK1B (radiometric profiling service); assay type: biochemical; details: apparent Ki calculated from Km (ATP) and IC50; read-out: CDK inhibition Ki CDK1B
CDK1B, sequence (P06493 whole entry): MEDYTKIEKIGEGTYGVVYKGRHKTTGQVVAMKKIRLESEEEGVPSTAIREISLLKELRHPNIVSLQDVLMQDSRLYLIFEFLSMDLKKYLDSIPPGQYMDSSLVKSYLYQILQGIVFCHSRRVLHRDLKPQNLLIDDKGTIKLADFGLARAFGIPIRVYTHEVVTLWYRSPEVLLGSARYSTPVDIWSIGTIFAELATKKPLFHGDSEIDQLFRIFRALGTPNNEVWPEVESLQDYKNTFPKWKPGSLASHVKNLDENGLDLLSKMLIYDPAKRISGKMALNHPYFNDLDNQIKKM
CDK1B, sequence (P14635 whole entry partner): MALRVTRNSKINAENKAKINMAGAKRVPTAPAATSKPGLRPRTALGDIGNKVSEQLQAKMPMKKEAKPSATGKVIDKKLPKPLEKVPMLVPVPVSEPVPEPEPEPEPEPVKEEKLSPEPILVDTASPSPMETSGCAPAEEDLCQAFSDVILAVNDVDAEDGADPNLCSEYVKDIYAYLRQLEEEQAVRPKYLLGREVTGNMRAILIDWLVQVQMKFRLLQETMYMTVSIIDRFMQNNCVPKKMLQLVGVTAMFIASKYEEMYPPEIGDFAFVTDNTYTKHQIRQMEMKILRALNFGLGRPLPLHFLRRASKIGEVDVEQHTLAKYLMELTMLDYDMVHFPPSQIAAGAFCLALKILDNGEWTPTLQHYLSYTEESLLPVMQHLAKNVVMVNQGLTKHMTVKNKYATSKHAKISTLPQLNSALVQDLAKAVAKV
Experimental: as §1

CDK7H, sequence (P50613 whole entry): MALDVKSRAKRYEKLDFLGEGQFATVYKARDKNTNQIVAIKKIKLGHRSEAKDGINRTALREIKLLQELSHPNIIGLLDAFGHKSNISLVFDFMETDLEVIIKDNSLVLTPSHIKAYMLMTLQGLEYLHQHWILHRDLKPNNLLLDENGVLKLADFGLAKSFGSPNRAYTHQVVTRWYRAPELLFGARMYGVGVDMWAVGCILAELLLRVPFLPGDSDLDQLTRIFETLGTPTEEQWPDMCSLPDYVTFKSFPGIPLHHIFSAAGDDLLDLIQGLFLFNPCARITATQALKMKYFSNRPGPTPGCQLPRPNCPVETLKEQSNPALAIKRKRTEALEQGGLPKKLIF
CDK7H, sequence (P51946 whole entry partner): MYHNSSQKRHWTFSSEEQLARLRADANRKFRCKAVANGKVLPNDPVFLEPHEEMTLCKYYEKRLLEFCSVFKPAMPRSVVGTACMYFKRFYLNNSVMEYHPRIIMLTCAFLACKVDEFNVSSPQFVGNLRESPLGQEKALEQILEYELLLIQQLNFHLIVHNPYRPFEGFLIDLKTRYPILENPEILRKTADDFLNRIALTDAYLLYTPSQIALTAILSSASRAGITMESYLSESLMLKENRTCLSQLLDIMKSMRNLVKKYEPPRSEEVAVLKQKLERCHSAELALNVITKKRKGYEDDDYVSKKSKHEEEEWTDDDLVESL
CDK7H, sequence (P51948 whole entry partner): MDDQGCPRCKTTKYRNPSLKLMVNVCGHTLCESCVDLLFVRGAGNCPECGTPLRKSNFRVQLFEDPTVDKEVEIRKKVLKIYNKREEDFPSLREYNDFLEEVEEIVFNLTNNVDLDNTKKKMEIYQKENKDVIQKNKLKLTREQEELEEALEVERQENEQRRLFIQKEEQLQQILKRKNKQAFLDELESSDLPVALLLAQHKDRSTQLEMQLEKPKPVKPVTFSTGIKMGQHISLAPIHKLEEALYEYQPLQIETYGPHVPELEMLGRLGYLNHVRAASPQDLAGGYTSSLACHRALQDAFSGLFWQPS

Compound | Ki (CDK7H) [nM] | Ki (CDK6D3) [nM] | Ki (CDK4D1) [nM] | GI50 (MDA-MB-453; 72 h) [nM] | Ki (CDK 2A) [nM] | Ki (CDK9T1) [nM] | GI50 (MV4-11; 72 h) [nM] | Ki (CDK1B) [nM] | GI50 (MDA-MB-453; Homo sapiens, MDA-MB-453, 72 h) [nM] | GI50 (MV4-11; Homo sapiens, MV4-11, 72 h) [nM]
5-(2-((5-(4-Ethylpiperazin-1-yl)pyridin-2-yl)amino)-5-fluoropyrimidin-4-yl)-N,4-dimethylthiazol-2-amine [Compound 32] | > 5000 | 20 | 5 | 528 ± 46 | 665 | 2920 | 65 ± 2 | > 5000 | – | –
CC(=O)N1CCN(c2ccc(Nc3nccc(-c4sc(C)nc4C)n3)nc2)CC1 [Compound 1, 1-(4-(6-((4-(2,4-dimethylthiazol-5-yl)pyrimidin-2-yl)amino)pyridin-3-yl)piperazin-1-yl)ethan-1-one] | > 5000 | 590 | 81 | – | > 5000 | > 5000 | – | > 5000 | > 10000 | 1100 ± 345
Cc1nc(C)c(-c2ccnc(Nc3ccc(N4CCNCC4)cn3)n2)s1 [Compound 2, 4-(2,4-dimethylthiazol-5-yl)-N-(5-(piperazin-1-yl)pyridin-2-yl)pyrimidin-2-amine] | > 5000 | 245 | 55 | – | > 5000 | > 5000 | – | > 5000 | > 10000 | 1021 ± 7
Cc1nc(C)c(-c2ccnc(Nc3ccc(N4CCN(C)CC4)cn3)n2)s1 [Compound 3, 4-(2,4-dimethylthiazol-5-yl)-N-(5-(4-methylpiperazin-1-yl)pyridin-2-yl)pyrimidin-2-amine] | > 5000 | 170 | 30 | – | 1930 | > 5000 | – | > 5000 | 378 ± 29 | 53 ± 3
Cc1nc(C)c(-c2nc(Nc3ccc(N4CCNCC4)cn3)ncc2C#N)s1 [Compound 4, 4-(2,4-dimethylthiazol-5-yl)-2-((5-(piperazin-1-yl)pyridin-2-yl)amino)pyrimidine-5-carbonitrile] | > 5000 | 117 | 31 | – | > 5000 | 2040 | – | > 5000 | 1970 ± 404 | 296 ± 287
Cc1nc(C)c(-c2nc(Nc3ccc(N4CCN(C)CC4)cn3)ncc2C#N)s1 [Compound 5, 4-(2,4-dimethylthiazol-5-yl)-2-((5-(4-methylpiperazin-1-yl)pyridin-2-yl)amino)pyrimidine-5-carbonitrile] | > 5000 | 27 | 70 | – | > 5000 | > 5000 | – | > 5000 | 914 ± 98 | 500 ± 247
CC(=O)N1CCN(c2ccc(Nc3ncc(C#N)c(-c4sc(C)nc4C)n3)nc2)CC1 [Compound 6, 2-((5-(4-acetylpiperazin-1-yl)pyridin-2-yl)amino)-4-(2,4-dimethylthiazol-5-yl)pyrimidine-5-carbonitrile] | > 5000 | 201 | 119 | – | > 5000 | > 5000 | – | > 5000 | > 10000 | 2130 ± 969
CCc1nc(C)c(-c2ccnc(Nc3ccc(N4CCNCC4)cn3)n2)s1 [Compound 7, 4-(2-ethyl-4-methylthiazol-5-yl)-N-(5-(piperazin-1-yl)pyridin-2-yl)pyrimidin-2-amine] | > 5000 | 237 | 59 | – | 1710 | > 5000 | – | > 5000 | 3860 ± 220 | 606 ± 150
CCc1nc(C)c(-c2ccnc(Nc3ccc(N4CCN(C)CC4)cn3)n2)s1 [Compound 8, 4-(2-ethyl-4-methylthiazol-5-yl)-N-(5-(4-methylpiperazin-1-yl)pyridin-2-yl)pyrimidin-2-amine] | > 5000 | 980 | 24 | – | 1820 | > 5000 | – | > 5000 | 3010 ± 705 | 750 ± 246
Cc1nc(C(C)C)sc1-c1ccnc(Nc2ccc(N3CCNCC3)cn2)n1 [Compound 13, 4-(2-isopropyl-4-methylthiazol-5-yl)-N-(5-(piperazin-1-yl)pyridin-2-yl)pyrimidin-2-amine] | > 5000 | 30 | 11 | – | 241 | > 5000 | – | 3740 | 703 ± 71 | 29 ± 19
Cc1nc(C(C)C)sc1-c1ccnc(Nc2ccc(N3CCN(C)CC3)cn2)n1 [Compound 14, 4-(2-isopropyl-4-methylthiazol-5-yl)-N-(5-(4-methylpiperazin-1-yl)pyridin-2-yl)pyrimidin-2-amine] | > 5000 | 29 | 10 | – | 287 | 4180 | – | 3410 | > 10000 | 596 ± 231
CCN1CCN(c2ccc(Nc3nccc(-c4sc(C(C)C)nc4C)n3)nc2)CC1 [Compound 15, N-(5-(4-ethylpiperazin-1-yl)pyridin-2-yl)-4-(2-isopropyl-4-methylthiazol-5-yl)pyrimidin-2-amine] | > 5000 | 25 | 5 | – | 465 | > 5000 | – | 3100 | 542 ± 65 | 63 ± 26
CC(=O)N1CCN(c2ccc(Nc3nccc(-c4sc(C(C)C)nc4C)n3)nc2)CC1 [Compound 16, 1-(4-(6-((4-(2-isopropyl-4-methylthiazol-5-yl)pyrimidin-2-yl)amino)pyridin-3-yl)piperazin-1-yl)ethan-1-one] | > 5000 | 209 | 62 | – | 246 | > 5000 | – | 4850 | > 10000 | 457 ± 122
Cc1nc(C(C)C)sc1-c1ccnc(Nc2ccc(N3CCOCC3)cn2)n1 [Compound 17, 4-(2-isopropyl-4-methylthiazol-5-yl)-N-(5-morpholinopyridin-2-yl)pyrimidin-2-amine] | 4690 | 4 | 1 | – | 60 | 1730 | – | 1440 | 1050 ± 203 | 649 ± 24
CNc1nc(C)c(-c2nc(Nc3ccc(N4CCN(Cc5ccccc5)CC4)cn3)ncc2C#N)s1 [Compound 40, 2-((5-(4-benzylpiperazin-1-yl)pyridin-2-yl)amino)-4-(4-methyl-2-(methylamino)thiazol-5-yl)pyrimidine-5-carbonitrile] | > 5000 | 36 | 16 | – | > 5000 | 999 | – | > 5000 | – | 84 ± 8
CNc1nc(C)c(-c2ccnc(Nc3ccc(N4CCN(Cc5ccccc5)CC4)cc3)n2)s1 [Compound 41, 5-(2-((4-(4-benzylpiperazin-1-yl)phenyl)amino)pyrimidin-4-yl)-N,4-dimethylthiazol-2-amine] | 67 | 225 | 6 | – | 37 | 117 | – | 133 | – | 38 ± 6
CNc1nc(C)c(-c2nc(Nc3ccc(N4CCN(Cc5ccccc5)CC4)cc3)ncc2C#N)s1 [Compound 42, 2-((4-(4-benzylpiperazin-1-yl)phenyl)amino)-4-(4-methyl-2-(methylamino)thiazol-5-yl)pyrimidine-5-carbonitrile] | 101 | 36 | 1 | – | 17 | 34 | – | 89 | – | 37 ± 6
CCN1CCN(Cc2ccc(Nc3ncc(F)c(-c4sc(NC5CCCC5)nc4C)n3)nc2)CC1 [Compound 84, N-cyclopentyl-5-(2-((5-((4-ethylpiperazin-1-yl)methyl)pyridin-2-yl)amino)-5-fluoropyrimidin-4-yl)-4-methylthiazol-2-amine] | 630 | 14 | 3 | – | – | 3570 | – | > 5000 | 622 ± 208 | –
